Key:
Type in all cases: in vivo
[1] = test system: 3rd-instar larvae of Spodoptera exigua Hübner; assay: Joint toxicity (LC50, CTC) of I-72 + indoxacarb, leaf-disk dipping, Example 1, Table 1; conditions: cabbage leaf-disk dipping, 72 h, A = compound I-72, B = indoxacarb
Method: (§1) Test subject: 3rd-instar larvae of Spodoptera exigua Hübner, a sensitive strain reared indoors.
Test conditions: temperature: 24-26° C., humidity: RH 60%, and illumination: L:D=14:10.
(§2) Preparation method: the test pesticides were accurately weighed respectively with an electronic analytical balance. After the two technical materials were respectively added into an appropriate amount of solvent and completely dissolved, the stock solution of the required concentration was prepared with water containing 0.1% Tween 80. The stock solutions of the two active ingredients were mixed in a certain ratio to prepare a mixed solution, which was then diluted respectively into a series of pesticide solutions with a certain concentration gradient according to the experimental design dosage.
Experimental method: the dipping method was adopted. […]
The co-toxicity coefficient (CTC value) of the mixture was calculated according to the following formula:
[formula] • in the formula: ATI-measured toxicity index of the mixture; S-LC50 of the standard pesticide; and M-LC50 of the mixture. […]
[formula] • in the formula: CTC-co-toxicity coefficient; ATI-measured toxicity index of the mixture; and TTI-theoretical toxicity index of the mixture. • CTC-co-toxicity coefficient • ATI-measured toxicity index of the mixture • TTI-theoretical toxicity index of the mixture

[2] = test system: 3rd-instar larvae of Spodoptera frugiperda; assay: Joint toxicity of I-72 + indoxacarb, corn leaf dipping, Example 3, Table 3; conditions: 72 h, A = compound I-72, B = indoxacarb
Text: (§3) Test subject: 3rd-instar larvae of Spodoptera frugiperda, a sensitive strain reared indoors.
(§4) Experimental method: the dipping method was adopted. The corn leaves cultivated in the greenhouse were taken, cut into leaf segments of 5 cm long, dipped in the prepared pesticide solution for 10 s, and then cut into small pieces of 1.5 cm×1.5 cm after natural air-drying in the shade. These pieces were placed in a 24-well culture plate, and the standard test insects were introduced, with 48 insects for each treatment. The treated test insects were placed in an observation room under certain conditions. The reaction of the test insects was regularly observed, and the number of dead and live insects was investigated 72 h later.
(§5) The test conditions, the preparation method of the pesticide solution, and the evaluation method (Sun Y-P) for the joint action type of the mixture were the same as those in Example 1.

[3] = test system: 3rd-instar larvae of Pyrausta nubilalis Hubern; assay: Joint toxicity of I-72 + metaflumizone, artificial diet-pesticide film, Example 2, Table 2; conditions: 72 h, A = compound I-72, B = metaflumizone
Method: (§6) Test subject: 3rd-instar larvae of Pyrausta nubilalis Hubern, a sensitive strain reared indoors.
(§7) Experimental method: the artificial diet-pesticide film method was adopted. A standard clean 24-well culture plate was selected. 1 ml of artificial diet was added to each well. After the diet cooled and solidified, a quantitative amount of a pesticide solution was added to the culture plate using a continuous sampler, and then it was air-dried naturally in the shade. The standard test insects were introduced, with 1 insect in each well, a total of 48 insects. The treated test insects were placed in an observation room under certain conditions. The reaction of the test insects was regularly observed, and the number of dead and live insects was investigated 72 h later.
as §5

[4] = test system: 3rd-instar larvae of Plutella xylostella; assay: Joint toxicity of I-72 + metaflumizone, airbrush spraying, Example 4, Table 4; conditions: airbrush spraying of cabbage leaf disks, 72 h, A = compound I-72, B = metaflumizone
Method: Test target: 3rd-instar larvae of Plutella xylostella, a sensitive strain reared indoors.
Test conditions: temperature: 25-27° C., humidity: RH 60%, and illumination: L:D=14:10
Experimental method: the airbrush spraying method was adopted. The cabbage cultivated in the greenhouse was taken and made into leaf disks with a diameter of 3 cm. After uniform spraying treatment with an airbrush manual sprayer, the leaf disks were placed in a 9-cm Petri dish lined with filter paper. After natural air-drying in the shade, the standard test insects were introduced, and the number of dead and live insects was investigated 72 h later.
The preparation of the pesticide solution and the evaluation method (Sun Y-P) for the joint action type of the mixture were the same as those in Example 1.

[5] = test system: 3rd-instar larvae of Pyrausta nubilalis Hubern; assay: Synergism assay (Bliss) of I-72 + abamectin, spinosad, spinetoram, emamectin benzoate, Example 6, Table 6; conditions: 72 h
Method: as §6
Test conditions: temperature: 24-26° C., humidity: RH 60%, and illumination: L:D=14:10
as §2, §7
The evaluation method adopted was the Bliss method. This method is applicable to the qualitative screening of insecticidal compositions. According to the concept of independent joint action he proposed, Bliss believes that the theoretical mortality rate P when insecticides are used in combination can be calculated by the following formula: […]
Pm is the mortality rate (%) of the target when the first active ingredient is at a concentration of m; and Pn is the mortality rate (%) of the target when the second active ingredient is at a concentration of n.
If the actual mortality rate of the target after the two active ingredients are mixed at a certain concentration is greater than theoretical mortality rate P, it is determined that the two active ingredients have a synergistic effect when used in combination at the set concentration, and otherwise, they have an antagonistic effect.

[6] = test system: 3rd-instar larvae of Spodoptera frugiperda; assay: Joint toxicity of I-72 + spinosad, corn leaf dipping, Example 10, Table 10; conditions: 72 h, A = compound I-72, B = spinosad
Text: as §3, §4
(§8) The test conditions, the preparation of the pesticide solution and the evaluation method were the same as those in Example 1.

[7] = test system: 2nd-instar larvae of Chilo suppressalis (Walker); assay: whole plant or invertebrate; conditions: resistant 2nd-instar larvae, rice stalk spraying, 72 h; A = compound I-72, B = spinetoram
Method: In addition, a blank control was set up. The number of dead and live insects was investigated 72 hours later.

[8] = test system: 2nd-instar nymphs of Frankliniella occidentalis Pergande; assay: Joint toxicity of I-72 + spinetoram, leaf spraying, Example 11, Table 11; conditions: kidney bean leaf spraying, 48 h, A = compound I-72, B = spinetoram
Text: Test subject: 2nd-instar nymphs of Frankliniella occidentalis Pergande, a sensitive strain reared indoors.
Experimental method: the spraying method was adopted. The kidney bean leaves cultivated in the greenhouse were selected, and the petioles were wrapped with moist degreased cotton and sealing film. They were evenly sprayed with the pesticide solution in the order from low dosage to high dosage according to the experimental design, placed in a 6-cm-diameter Petri dish with filter paper. After natural air-drying in the shade, the test insects were introduced, with 20 insects for each treatment and 3 replicates. In addition, a blank control was set up. The number of dead and live insects was investigated 48 hours later. The corrected mortality rate was calculated using the Abbott's formula, and the DPS data processing software was used for statistical analysis to calculate the toxicities (LC50 values) of the single test pesticides and the mixtures under the test ratios.
as §8

[9] = test system: 3rd-instar larvae of Spodoptera exigua Hübner; assay: Joint toxicity of I-72 + emamectin benzoate, leaf-disk dipping, Example 9, Table 9; conditions: cabbage leaf-disk dipping, 72 h, A = compound I-72, B = emamectin benzoate
Text: as §1
Experimental method: the dipping method was adopted. The cabbage leaves cultivated in the greenhouse were taken, the surface wax layer was removed, and leaf disks with a diameter of 3 cm were made with a puncher. The leaf disks were dipped in the prepared pesticide solution for 10 s, and then put into a 9-cm-diameter Petri dish lined with filter paper. After natural air-drying in the shade, the standard test insects were introduced, with 10 insects placed in each dish and 3 replicates performed. The treated test insects were placed in an observation room under certain conditions. The reaction of the test insects was regularly observed, and the number of dead and live insects was investigated 72 h later.
as §8

[10] = test system: adult Bemisia tabaci (Gennadius); assay: Joint toxicity of I-72 + emamectin benzoate, seedling spraying, Example 12, Table 12; conditions: adults, kidney bean seedling spraying, 72 h; A = compound I-72, B = emamectin benzoate
Text: Test subject: adult Bemisia tabaci (Gennadius), a sensitive strain reared indoors.
Experimental method: the spraying method was adopted. The kidney bean seedlings cultivated in the greenhouse were selected and evenly sprayed with the pesticide solution in the order from low dosage to high dosage according to the experimental design. After natural air-drying in the shade, a self-made glass cover was put on, and the test insects were introduced, with 20-30 insects for each treatment and 3 replicates. In addition, a blank control was set up. The number of dead and live insects was investigated 72 hours later. The corrected mortality rate was calculated using the Abbott's formula, and the DPS data processing software was used for statistical analysis to calculate the toxicities (LC50 values) of the single test pesticides and the mixtures under the test ratios.
as §8

[11] = test system: 3rd-instar larvae of Chilo suppressalis (Walker); assay: Joint toxicity of I-72 + organophosphorus insecticides, rice seedling dipping, Example 15, Table 15; conditions: 48 h
Method: Test target: 3rd-instar larvae of Chilo suppressalis (Walker), a sensitive strain reared indoors.
(§9) Preparation of the pesticide solution: according to different test requirements, the test samples were accurately weighed respectively with an electronic analytical balance. The technical pesticides were dissolved in acetone, and then diluted with 0.1% Tween 80 water into a series of pesticide solutions with a certain concentration gradient according to the experimental design dosage.
(§10) Experimental method: first, tender and fresh rice seedlings were selected and dipped in the prepared pesticide solution for 10 s in the order from low dosage to high dosage according to the experimental design. After natural air-drying in the shade, they were cut into small sections of 5 cm, placed in a 9-cm-diameter Petri dish with filter paper, and uniform and healthy test insects were introduced, with 10 insects for each treatment and 3 replicates for each treatment. In addition, a blank control was set up.
(§11) The treated test materials were placed in an observation room, and the temperature, humidity and illumination of the observation room could be adjusted as needed. The number of dead and live insects was investigated 48 hours later. The corrected mortality rate was calculated using the Abbott's formula, and statistical analysis was performed with the DPS data processing software to obtain the toxicity regression equation, LC50 value and 95% confidence limit of each single test pesticide and each mixture of different ratios. Then, the co-toxicity coefficient of each ratio was calculated using the Sun Y-P method to evaluate the mixing effect (the same as in Example 1).

[12] = test system: Bemisia tabaci (Gennadius) nymphs; assay: Joint toxicity of I-72 + organophosphorus insecticides, cotton leaf-disk spraying, Example 18, Table 18; conditions: 96 h
Method: Test target: Bemisia tabaci (Gennadius) nymphs.
as §9
Experimental method: first, cotton leaves with neat and consistent Bemisia tabaci (Gennadius) nymphs were selected and made into leaf disks, with about 20 insects on each leaf disk. Then, they were evenly sprayed with the pesticide solution in the order from low dosage to high dosage according to the experimental design, with 1.5 mL for each leaf and 3 replicates for each treatment. In addition, a blank control was set up.
as §11, with “96” for “48”

adult Phyllotreta spp. = assay: Joint toxicity of I-72 + organophosphorus insecticides, cabbage seedling spraying, Example 19, Table 19; conditions: 72 h
Method: Test target: adult Phyllotreta spp., a sensitive strain reared indoors.
as §9
Experimental method: first, fresh cabbage seedlings cultivated in the greenhouse were selected and evenly sprayed with the pesticide solution in the order from low dosage to high dosage according to the experimental design. After natural air-drying in the shade, they were covered with a glass cover, and uniform and healthy test insects were introduced, with 10 insects for each treatment and 3 replicates for each treatment. In addition, a blank control was set up.
as §11, with “72” for “48”

[13] = test system: 3rd-instar larvae of Ostrinia furnacalis Guenee; assay: Joint toxicity of I-72 + organophosphorus insecticides, corn stalk dipping, Example 21, Table 21; conditions: 48 h
Method: Test target: 3rd-instar larvae of Ostrinia furnacalis Guenee, a sensitive strain reared indoors.
as §9
as §10, with “first, fresh” for “first,”, “corn stalks cultivated in the greenhouse” for “and fresh rice seedlings”, “selected, cut into small sections of 3 cm,” for “selected”, “were” for “were cut into small sections of 5 cm,”
as §11

COC(=O)N(C(=O)N1CO[C@@]2(C(=O)OC)Cc3cc(Cl)ccc3C2=N1)c1ccc(OC(F)(F)F)cc1 [indoxacarb, reference compound]
LC50 [1]: 0.8555 µg/mL
LC50 [2]: 2.2438 µg/mL

N#Cc1ccc(CC(=NNC(=O)Nc2ccc(OC(F)(F)F)cc2)c2cccc(C(F)(F)F)c2)cc1 (mixture of isomers) [metaflumizone, reference compound]
LC50 [3]: 1.0724 µg/mL
LC50 [4]: 12.8933 µg/mL

spinosad
Mortality rate (%) ([5]; single agent 0.1 mg/L): 4.17%
Mortality rate (%) ([5]; single agent 1 mg/L): 52.08%
Mortality rate (%) ([5]; single agent 2 mg/L): 68.75%
Mortality rate (%) ([5]; single agent 5 mg/L): 79.17%
LC50 [6]: 1.1242 µg/mL

spinetoram
Mortality rate (%) ([5]; single agent 0.1 mg/L): 8.33%
Mortality rate (%) ([5]; single agent 1 mg/L): 56.25%
Mortality rate (%) ([5]; single agent 2 mg/L): 70.83%
Mortality rate (%) ([5]; single agent 5 mg/L): 81.25%
LC50 [7]: 9.4220 µg/mL
LC50 [8]: 0.7822 µg/mL

emamectin benzoate
Mortality rate (%) ([5]; single agent 0.05 mg/L): 41.67%
Mortality rate (%) ([5]; single agent 0.1 mg/L): 50.00%
Mortality rate (%) ([5]; single agent 0.2 mg/L): 79.17%
Mortality rate (%) ([5]; single agent 0.5 mg/L): 87.50%
LC50 [9]: 0.0878 µg/mL
LC50 [10]: 1.1995 µg/mL

COP(=O)(NC(C)=O)SC (stereo not shown) [acephate]
LC50 [11]: 11.1 µg/mL
LC50 [12]: 34.9 µg/mL
LC50 (adult Phyllotreta spp.): 61.6 µg/mL
LC50 [13]: 15.5 µg/mL

— patent US20260198495A1, “BINARY INSECTICIDE COMPOSITION AND USE THEREOF” (SHENYANG SINOCHEM AGROCHEMICALS R & D CO., LTD., priority 2022, published 2026)
